# Entries after “also recorded” stand apart in the source; their conditions may differ.
# Legend:
# [1] = Tissue distribution after oral administration; type: in vivo
# PKCβI [2] = experiment: PKCβ1 translocation in glucose-stimulated mesangial cells (Western blot); type: cell-based; settings: 1 hr pre-treatment, 25 mM glucose 5 days
# Experimental: (§1) FIG. 9 is a diagrammatic representation showing the suppression of PKCβ1 translocation in glucose-stimulated mesangial cells (a) and in the glomeruli of a diabetic rat (b). Mesangial cells were pre-treated with MP5 or vehicle (ethanol) for 1 hr before being incubated with 25 mM glucose for 5 days. Male rats were rendered diabetic with streptozotocin and MP5 or vehicle (ethanol) was administered for 7 days after confirmation of diabetes. The cells and glomeruli were sonicated and particulate fraction-associated PKCβ1 was determined by Western blot analysis. High glucose and diabetes increased PKCβ1 in the particulate fraction.
# Mesangial cells are prepared as previously described (Couper et al, 1994 supra).
# Four groups of cells were set up: 5.5 mM glucose+ethanol (0.1% w/v or v/v), 5.5 mM glucose+MP5 (20 μM which is effective in the studies), 25 mM glucose+ethanol and 25 mM glucose+MP5. […] Cells were pre-incubated (30 min-24 h) with MP5 before being challenged with glucose for 4 days. […] Cells are then be washed, sonicated and the amount of each PKC isozyme in the particulate fraction determined by Western blot analysis. The soluble fractions were kept for estimation of soluble PKC (non-particulate fraction-associated). […] The cells remained viable throughout the period of study as judged by the trypan blue exclusion test. […]
# [3] = Formalin-induced pain test (hind paw licking time); type: in vivo
# Experimental: Investigations of the effects of PT2 on pain induced by phenylquinolic acid (PQ writhing) and formalin have been made. In both the PQ writhing test (FIG. 3) and the formalin algesia test (FIG. 4), PT2 administered by intraperitoneal inoculation reduced pain and compared favourably with pain reduction by aspirin (oral, 100 mg/kg). In these tests, the EPUFA was administered 30 min before the pain stimulus and effects recorded over the following 20 min.
# Investigations of PT2 in the formalin-induced analgesia model looking specifically at the biphasic response have also been undertaken and are shown in Table 1. It is well documented that in this model, aspirin suppresses only pain related to the inflammatory process (15-20 mins post-administration of formalin), while morphine suppresses pain in both phases of the response (0-5 min and 15-20 min).
# Compounds were administered intraperationedly (ip) 30 min prior to the administration of formalin (0.02 ml, 1% solution) via subplantar injection into the right hind paw. Reduction of the induced hind paw licking time recorded during the following 0-5 min period (Phase I response) or 15-20 min period (Phase II response) was determined. The data in Table 1 are the mean responses of 5 animals in each group.
# [4] = Long term in vivo tolerability of MP5; design: species or system rats; settings: up to 100 mg/kg
# Experimental: (§2) MP5 had minimal effects (<15%) on PKCε translocation and no effects on the translocation of the other PKC isozymes in Jurkat cells.
# The ability of MP5 to inhibit renal TGFβ production and albuminuria in streptozotocin-induced diabetic Sprague-Dawley rats were investigated. MP5 is non toxic to rats given at up to 100 mg/kg chronically as determined by liver and kidney biochemical and electrolyte markers. […] Animals (130-150 g) were placed randomly in one of five groups: control, MP5-treated, diabetic, diabetic+MP5 and diabetic+MP1. Power analysis ([…], β=0.1) (expecting at least a 50% reduction and an SD of 30% of mean) indicate that 7-8 animals/group were needed. The rats were rendered diabetic using streptozotocin (65 mg/kg. I.P) and blood glucose levels were measured 48 hr later to confirm the onset of diabetes (glucose>15 mM). […] Blood glucose was measured every week. […] At the end of the MP5 treatment period, rats were sacrificed and the level of TGFβ mRNA (Kikkawa et al 1994 supra) in the glomeruli were determined by slot blot analysis (Ferrante et al, 1997 supra) and normalized by comparison with the level of GAPDH (glyceraldehyde 3-phosphate dehydrogenase) mRNA in the same sample (Ferrante et al, 1997 supra). The amount of albumin in the urine were measured by using a commercial kit (EXOCELL Inc. Philadelphia, Pa.). […]
# PKCε = target: T1, PKCε (Homo sapiens, UniProt Q02156); experiment: PKC translocation in Jurkat cells; type: cell-based
# T1 construct: endogenous in cells; host or cells: Jurkat
# Excerpt: as §2
# other PKC isozymes = experiment: PKC translocation in Jurkat cells; type: cell-based
# Excerpt: as §2
# PKCβII = target: T2, PKCβII (Homo sapiens, UniProt P05771); experiment: PMA-stimulated PKC translocation to the particulate fraction in HUVEC and other cell-types; type: cell-based
# T2 construct: endogenous in cells; host or cells: HUVEC (and unnamed other cell-types)
# Experimental: as §2
# Mesangial cells express PKCα, βI, ε, δ and ζ (Koya et al, 1997 supra, Kikkawa et al, 1994 supra), and βII at lower levels (Koya et al, 1997 supra). To examine the effect of MP5 on the ability of other PKC isozymes in mesangial cells to translocate to the particulate fraction, the cells were pre-treated with MP5 before being stimulated with PMA (1-100 nM). This agent stimulated the translocation of all the classical and novel isozymes. […] The studies were extended to other isozymes. For PKCγ (expressed mainly by neuronal cells), the effect of MP5 are tested using PMA-stimulated PC12 rat pheochromocytoma cells. To assess the effect of MP5 on the activation of atypical PKC isozymes such as PKCζ NIH3T3 cells were pre-treated with MP5 before being stimulated with tumour necrosis factor ? (1000 U/ml) which stimulates PKCζ activity in these cells (Lallena et al, 1999 supra). The isozyme were immunoprecipitated (antibody from Santa Cruz) and kinase activity was determined using a PKCε pseudosubstrate peptide or myelin basic protein as a substrate (Suzuma et al, 2002 supra).
# PKCβI [5] = target: T3, PKCβI (Rattus norvegicus, UniProt P68403); experiment: PKCβ1 translocation in the glomeruli of streptozotocin-diabetic rats; type: in vivo; settings: administered for 7 days after confirmation of diabetes
# T3 construct: from tissue; host or cells: glomeruli of streptozotocin-diabetic male rats
# Experimental: as §1
# HUVEC = experiment: Agonist-enhanced neutrophil adherence to HUVEC; type: cell-based, human; settings: 20 μmol/l, 1 hr pre-treatment, TNF 4 hr
# Experimental: FIG. 11 is a representation showing effect of β-oxa; β-thia and natural PUFA on TNF-enhanced neutrophil adherence to HUVEC. HUVEC were pre-treated with the fatty acids (20 μmol/l) for 60 min at 37° C. before being stimulated with TNF (125 U/200 μl medium) for 4 hr at 37° C. The cells were then co-incubated with neutrophils (5×10^5 cells/well) at 37° C. for 30 min and the degree of neutrophil adherence quantitated. The results are expressed as % of control and represent the mean±SEM of three separate experiments each performed in triplicate. * p<0.05, ***p<0.001, for significant differences between pre-treatment with fatty acid and control (one-way analysis of variance followed by the Dunnett test for multiple comparisons).
# Adhesion of neutrophils, prepared by the rapid-single-step method (Ferrante et al, J. Immun. Methods 36:109-117, 1980), to HUVEC isolated from umbilical cords was carried out essentially as described (Huang et al, 1997 supra).
# The magnitude of the suppressive effect of -MP3 was dependent on-pre-treatment time and concentration with significant effects observed with a pre-treatment time of 1 hr and a concentration of ≧5 μmol/l.
# PKCβI [6] = target: T4, PKCβI (Homo sapiens, UniProt P05771); experiment: PMA-stimulated PKC translocation to the particulate fraction in HUVEC and other cell-types; type: cell-based
# T4 construct: endogenous in cells; host or cells: HUVEC (and unnamed other cell-types)
# [7] = 100 mg/kg ip, 30 min prior to formalin, mean of 5 animals
# T4 sequence (P05771 whole entry): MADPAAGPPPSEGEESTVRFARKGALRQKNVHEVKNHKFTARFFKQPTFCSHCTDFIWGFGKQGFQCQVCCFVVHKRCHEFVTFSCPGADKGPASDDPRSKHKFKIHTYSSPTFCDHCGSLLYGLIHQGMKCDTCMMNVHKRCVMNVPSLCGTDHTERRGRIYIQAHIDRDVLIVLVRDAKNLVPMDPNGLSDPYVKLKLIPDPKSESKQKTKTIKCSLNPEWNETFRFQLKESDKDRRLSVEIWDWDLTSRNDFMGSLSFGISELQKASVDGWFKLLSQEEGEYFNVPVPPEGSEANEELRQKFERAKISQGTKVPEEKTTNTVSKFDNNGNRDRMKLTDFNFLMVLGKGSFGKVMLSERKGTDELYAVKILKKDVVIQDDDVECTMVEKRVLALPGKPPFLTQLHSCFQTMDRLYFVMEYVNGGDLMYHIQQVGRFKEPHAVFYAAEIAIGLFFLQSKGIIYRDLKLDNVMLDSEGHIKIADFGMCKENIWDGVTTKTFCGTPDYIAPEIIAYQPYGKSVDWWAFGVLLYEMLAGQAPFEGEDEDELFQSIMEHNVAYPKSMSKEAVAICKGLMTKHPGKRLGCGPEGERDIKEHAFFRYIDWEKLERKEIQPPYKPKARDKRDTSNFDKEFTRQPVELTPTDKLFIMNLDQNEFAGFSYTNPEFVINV
# T3 sequence (P68403 whole entry): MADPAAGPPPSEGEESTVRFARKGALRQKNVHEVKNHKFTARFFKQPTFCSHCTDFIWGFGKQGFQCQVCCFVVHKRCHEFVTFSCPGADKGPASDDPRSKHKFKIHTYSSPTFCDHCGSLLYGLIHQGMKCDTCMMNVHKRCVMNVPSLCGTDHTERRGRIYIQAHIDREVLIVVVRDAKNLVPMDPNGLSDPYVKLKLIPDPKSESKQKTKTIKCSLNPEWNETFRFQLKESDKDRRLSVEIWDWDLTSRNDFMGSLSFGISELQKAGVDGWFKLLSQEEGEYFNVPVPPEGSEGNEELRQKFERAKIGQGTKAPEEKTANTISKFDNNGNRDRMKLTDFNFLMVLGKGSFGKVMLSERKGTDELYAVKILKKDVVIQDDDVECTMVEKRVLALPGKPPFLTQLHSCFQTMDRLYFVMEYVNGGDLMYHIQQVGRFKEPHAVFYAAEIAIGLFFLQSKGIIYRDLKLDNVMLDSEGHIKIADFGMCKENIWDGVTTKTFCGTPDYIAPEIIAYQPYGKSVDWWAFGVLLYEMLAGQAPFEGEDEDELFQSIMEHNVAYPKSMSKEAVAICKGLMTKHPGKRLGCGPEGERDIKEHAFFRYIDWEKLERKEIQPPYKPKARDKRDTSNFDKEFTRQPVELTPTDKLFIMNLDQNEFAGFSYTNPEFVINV
# T1 sequence (Q02156 whole entry): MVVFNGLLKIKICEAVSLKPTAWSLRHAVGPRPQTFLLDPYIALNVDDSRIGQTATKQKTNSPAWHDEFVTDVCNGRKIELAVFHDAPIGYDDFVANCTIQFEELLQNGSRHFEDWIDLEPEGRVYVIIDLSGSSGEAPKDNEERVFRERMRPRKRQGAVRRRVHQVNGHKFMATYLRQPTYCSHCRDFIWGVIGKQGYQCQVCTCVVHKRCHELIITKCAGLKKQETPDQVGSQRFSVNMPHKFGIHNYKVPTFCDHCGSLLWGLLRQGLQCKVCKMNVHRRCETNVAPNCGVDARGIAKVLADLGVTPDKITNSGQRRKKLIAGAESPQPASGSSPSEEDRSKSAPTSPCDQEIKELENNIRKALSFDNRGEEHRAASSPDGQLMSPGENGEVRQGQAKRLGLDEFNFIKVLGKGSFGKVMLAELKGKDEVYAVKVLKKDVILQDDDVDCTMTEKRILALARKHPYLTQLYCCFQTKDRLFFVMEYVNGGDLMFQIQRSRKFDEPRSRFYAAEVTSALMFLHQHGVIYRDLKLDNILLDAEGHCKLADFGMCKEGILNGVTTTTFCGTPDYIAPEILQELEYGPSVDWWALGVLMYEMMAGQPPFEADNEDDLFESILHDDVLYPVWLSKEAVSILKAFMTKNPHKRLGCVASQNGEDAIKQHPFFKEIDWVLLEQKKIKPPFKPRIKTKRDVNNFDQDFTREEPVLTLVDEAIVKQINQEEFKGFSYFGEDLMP
# T2 sequence (P05771 1-673 isoform P05771-2): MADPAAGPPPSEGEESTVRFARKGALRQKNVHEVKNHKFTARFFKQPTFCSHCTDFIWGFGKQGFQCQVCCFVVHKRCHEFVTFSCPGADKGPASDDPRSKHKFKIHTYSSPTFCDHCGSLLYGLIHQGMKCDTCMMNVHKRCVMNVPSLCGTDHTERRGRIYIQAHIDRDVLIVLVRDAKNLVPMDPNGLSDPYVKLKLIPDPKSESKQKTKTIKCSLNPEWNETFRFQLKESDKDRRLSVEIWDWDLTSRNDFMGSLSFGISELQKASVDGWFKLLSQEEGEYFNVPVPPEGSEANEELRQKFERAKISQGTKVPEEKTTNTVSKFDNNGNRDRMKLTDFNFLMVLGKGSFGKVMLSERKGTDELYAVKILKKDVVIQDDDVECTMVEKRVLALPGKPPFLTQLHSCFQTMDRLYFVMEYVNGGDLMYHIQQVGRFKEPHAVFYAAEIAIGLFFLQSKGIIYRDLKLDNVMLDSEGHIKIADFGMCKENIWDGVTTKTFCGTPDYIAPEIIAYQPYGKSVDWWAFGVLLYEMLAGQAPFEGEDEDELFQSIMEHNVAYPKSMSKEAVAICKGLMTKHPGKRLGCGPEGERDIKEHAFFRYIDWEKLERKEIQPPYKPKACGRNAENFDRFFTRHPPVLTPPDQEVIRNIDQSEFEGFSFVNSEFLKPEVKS
smiles,measurement,setting,value
"CC/C=C\C/C=C\C/C=C\CCCCCCCCOCC(=O)O [MP5, β-oxa-21:3n-3]","Presence in blood, organs and tissues after oral administration",[1],"present in the blood and various organs; also recorded: taken up by tissues, including kidneys, and incorporated into phospholipids"
same,"Translocation of PKCβI to a particulate fraction, glucose-stimulated mesangial cells",PKCβI [2],prevent the translocation of PKCβI; also recorded: inhibited this effect
same,"% inhibition of pain response, Phase I (0-5 mins)",[3]; [7],34%
same,"% inhibition of pain response, Phase II (15-20 mins)",[3]; [7],37%
same,Pain reduction in formalin test,"[3]; intraperitoneal, 30 min before pain stimulus",much less effective in inhibiting pain
same,Liver and kidney function and electrolyte levels,[4]; chronic,no adverse effects on liver and kidney function and electrolyte levels; also recorded: non toxic
same,"Well-being of the animals (coat appearance, activity/mobility)",[4]; up to three months,no visible adverse effects
same,Effect on PKCε translocation,PKCε,< 15%
same,Effect on translocation of the other PKC isozymes,other PKC isozymes,no effects
same,PMA-stimulated translocation of PKCβII to the particulate fraction,PKCβII,inhibited PMA-stimulated translocation
same,"Translocation of PKCβI to a particulate fraction, glomeruli of diabetic rats",PKCβI [5],prevent the translocation of PKCβI; also recorded: inhibited this effect
same,Inhibition of TNF-α-enhanced neutrophil adhesion to HUVEC,HUVEC,inhibited their ability to be stimulated
same,PMA-stimulated translocation of PKCβI to the particulate fraction,PKCβI [6]; HUVEC and other cell-types,inhibited PMA-stimulated translocation
same,Selectivity between PKCβI and PKCβII,"PKCβI [6]; HUVEC, depending on the concentrations used",able to distinguish between PKCβI and PKCβII

# Reference: patent US20090215895A1, “Therapeutic and carrier molecules” (PEPLIN BIOLIPIDS PTY LTD, priority 2004, published 2009)
